Measured values taken from US6716854B2, “Treatments for restless legs syndrome” (Pfizer, Inc., priority 2000, dated 2004).
Counter-ions that a name gives are not always drawn. Values belong to the compound of their own block, whether it stands above or below them.

Columns and labels:
RLS patients = settings: cited from earlier work
[1] = in vivo; cited from earlier work
people with RLS = settings: recent studies quoted from RLS Internet site; cited from earlier work

Structure (SMILES): N[C@@H](Cc1ccc(O)c(O)c1)C(=O)O [L-dopa]
suppression of RLS (RLS patients; L-dopa 100 mg with carbidopa 10 mg, in most cases, rebound of PLMS in last part of night): completely suppresses RLS
effect on RLS at bedtime and PLMS throughout the night (RLS patients; administered twice at night, PSG recordings, double-blind): significant reduction

melting point: 195 to 196 °C
Structure (SMILES): CN[C@@H]1Cc2cccc3[nH]c(=S)n(c23)C1.O=C(O)/C=C\C(=O)O

Structure (SMILES): CCCN1C[C@H](CSC)C[C@@H]2c3cccc4[nH]cc(c34)C[C@H]21 [Pergolide]
half-life [1]: 7 to 16 h

Structure (SMILES): CCCN1C[C@H](CSC)C[C@@H]2c3cccc4[nH]cc(c34)C[C@H]21 [Permax®, pergolide mesylate]
effectiveness in treating RLS relative to Sinemet (people with RLS): as effective as Sinemet®
potential for causing augmentation (people with RLS): 10%

melting point: 210 to 213 °C
Structure (SMILES): CN[C@@H]1Cc2cccc3[nH]c(=S)n(c23)C1
